Measured values reported in ChEMBL document CHEMBL1146213, “Biscembranoids and their probable biogenetic precursor from the Hainan soft coral Sarcophyton tortuosum” (J Nat Prod, 2007).
Activity calls are given as the source filed them.

Legend:
A549 = assay: Antitumor activity against A549 cells; format: functional, cell-based; details: Homo sapiens
P388 = assay: Antitumor activity against P388 cells; format: functional, cell-based; details: Mus musculus
Cladosporium cucumerinum = assay: Antifungal activity against Cladosporium cucumerinum; format: functional, organism-based

Measured: Activity

C=C1CC[C@@H]2O[C@@H]1CC/C(C)=C/[C@@H]1C(=C(C)C[C@H]3C(=O)C[C@H](C)CCC[C@H](C)C(=O)C[C@H](C(C)C)C(=O)C[C@@]13C(=O)OC)[C@H](O)C[C@@]2(C)O
inactive: all assays above

COC(=O)[C@@]12CC(=O)[C@@H](C(C)C)CC(=O)[C@@H](C)CCC[C@@H](C)CC(=O)[C@@H]1CC(C)=C1[C@H](O)C[C@@]3(C)O[C@@H]3CC[C@@]3(C)O[C@@H]3CC/C(C)=C/[C@H]12
inactive: all assays above

COC(=O)[C@@]12CC(=O)[C@@H](C(C)C)CC(=O)[C@@H](C)CCC[C@@H](C)CC(=O)[C@@H]1CC(C)=C1[C@H](O)C[C@@](C)(Cl)[C@@H](O)CC[C@@]3(C)O[C@@H]3CC/C(C)=C/[C@H]12
inactive: all assays above

COC(=O)/C1=C/C(=O)C[C@H](C)CCC[C@H](C)C(=O)C[C@H](C(C)C)C(=O)C1
inactive: all assays above

COC(=O)[C@@]12CC(=O)[C@@H](C(C)C)CC(=O)[C@@H](C)CCC[C@@H](C)/C=C3\O[C@@](C)(C[C@@H]31)/C1=C/C[C@](C)(O)[C@H]3CC[C@@](C)(O3)[C@H](O)CC/C(C)=C/[C@H]12
inactive: all assays above

COC(=O)[C@@]12CC(=O)[C@@H](C(C)C)CC(=O)[C@@H](C)CCC[C@@H](C)CC(=O)[C@@H]1CC(C)=C1[C@H](O)C[C@](C)(Cl)[C@H]3CC[C@@](C)(O3)[C@H](O)CC/C(C)=C/[C@H]12
inactive: all assays above
